Measurements: patent publication US11173165B2, “Optimizing mifepristone levels for Cushing's patients” (Corcept Therapeutics, Inc., priority 2015, dated 2021)

How the values were obtained:
[1] = Mifepristone trough plasma level (MIFE-Ctrough) in Phase III open label study of Cushing's syndrome; type: in vivo, human; conditions: for MIFE-Ctrough, Mean / MIFE-Ctrough, Max / MIFE-Ctrough, Median / MIFE-Ctrough, Min: responders who completed the study
Protocol: Three (3) mL of blood was collected from a patient in a vacutainer containing sodium heparin. The blood was centrifuged and the resulting plasma frozen at −70 to −80° C. until assay. For analysis, the plasma samples were warmed and prepared as follows: • 1. Using a pipette, 50.0 μL of the sample was aliquoted into a 16×100-mm glass test tube. When a partial volume aliquot was needed, the aliquot was added to the tube and diluted to full volume with blank human plasma. • 2. 20.0 μL of the internal standard, mifepristone-d4 (5.00 μg/mL in acetonitrile), was added to the tube, resulting in 2000.0 ng/mL mifepristone-d4 in plasma. • 3. The tube was vortexed for approximately 1 minute. • 4. 50.0 μL of 6% ammonium hydroxide was added to the tube. • 5. The tube was vortexed for approximately 1 minute. • 6. 2.00 mL of MTBE was added to the tube. • 7. 2.00 mL of hexane was added to the tube. • 8. The tube was vortexed for at least 15 minutes. • 9. The tube was centrifuged for at least 10 minutes at 2500 RPM (575×g). • 10. The aqueous layer was frozen in a freezer set to maintain −70° C. • 11. […] The tube was vortexed for approximately 1 minute. • 15. The tube was sonicated for approximately 1 minute. • 16. The tube was vortexed for approximately 1 minute. • 17. The sample was transferred to a labeled injection vial or well plate. • 18. The vial or plate was capped and checked for air bubbles. The sample was then analyzed by reverse-phase high pressure liquid chromatography using a water:acetonitrile:formic acid (60:40:0.1) mobile phase (isocratic) at a flow rate of 0.3 mL/min. The column was a phenyl column maintained at 50° C. Mifepristone elutes at 4.2 minutes. Following elution, the mobile phase was nebulized using heated nitrogen in a Z-spray source/interface and the ionized compounds detected using a tandem quadrupole mass spectrometer. Mifepristone (molecular weight of 430 g/mol) was detected at m/z 372.30. The internal standard mifepristone-d4 was detected at m/z 376.30. The ratio of the mifepristone peak height to the mifepristone-d4 peak height was calculated. The plasma concentration of mifepristone was then calculated by comparing the experimental ratio to a standard curve of mifepristone:mifepristone-d4 peak height ratio v. mifepristone concentration. The standard curve was generated by first measuring the mifepristone:mifepristone-d4 peak height ratios for mifepristone samples at 10, 20, 50, 100, 200, 500, 1000 and 2000 ng/mL where the mifepristone-d4 internal standard has a concentration of 2000 ng/mL. The mifepristone:mifepristone-d4 peak height ratios of these known solutions were then fit to a power equation (Mass Lynx by Micromass, Beverly, Mass.), and the sample with unknown concentrations of mifepristone was compared. […]

[2] = system: patients with a diagnosis of Cushing's syndrome; test: Optimal response to mifepristone in Phase III open label study of Cushing's syndrome; type: in vivo, human; conditions: responders who completed the study
Protocol: This example provides an open label study of the safety and efficacy in the treatment of Cushing's syndrome. The study was a Phase III trial performed using several investigators at several different sites. […] The number of patients was 50. Patients eligible for randomization were male or nonpregnant female outpatients, and inpatients, if clinically required, with a diagnosis of Cushing's syndrome. Mifepristone was used as the test drug at 300 (1×300 mg tablet), 600 (2×300 mg tablet), 900 (3×300 mg tablet) and 1200 mg (4×300 mg tablet) once a day by mouth. Safety visits occurred at Days 21 and 35. If clinically necessary, a patient was treated as an inpatient. If early termination occurred prior to day 35, the patient returned for a safety follow up visit at day 35. The primary efficacy endpoint was the proportion of patients with at least a 25% reduction from baseline on a standard two hour oral glucose tolerance test or a […] in their diastolic blood pressure at study end (6 months). The secondary endpoints were: (1) the patient's global impression; and (2) reduction in previously used antihypertensive medication. The criteria for assessing study efficacy objective was the proportion of patients with at least a 25% reduction from baseline on a standard two hour oral glucose tolerance test or a […] in their diastolic blood pressure at study end (6 months).

[3] = cited from earlier work
[4] = target: glucocorticoid receptor (GR) (Homo sapiens, UniProt P04150); conditions: cited from earlier work
[5] = in vivo; cited from earlier work
[6] = at first response, including early terminators

Chain of glucocorticoid receptor (GR) (P04150 whole entry): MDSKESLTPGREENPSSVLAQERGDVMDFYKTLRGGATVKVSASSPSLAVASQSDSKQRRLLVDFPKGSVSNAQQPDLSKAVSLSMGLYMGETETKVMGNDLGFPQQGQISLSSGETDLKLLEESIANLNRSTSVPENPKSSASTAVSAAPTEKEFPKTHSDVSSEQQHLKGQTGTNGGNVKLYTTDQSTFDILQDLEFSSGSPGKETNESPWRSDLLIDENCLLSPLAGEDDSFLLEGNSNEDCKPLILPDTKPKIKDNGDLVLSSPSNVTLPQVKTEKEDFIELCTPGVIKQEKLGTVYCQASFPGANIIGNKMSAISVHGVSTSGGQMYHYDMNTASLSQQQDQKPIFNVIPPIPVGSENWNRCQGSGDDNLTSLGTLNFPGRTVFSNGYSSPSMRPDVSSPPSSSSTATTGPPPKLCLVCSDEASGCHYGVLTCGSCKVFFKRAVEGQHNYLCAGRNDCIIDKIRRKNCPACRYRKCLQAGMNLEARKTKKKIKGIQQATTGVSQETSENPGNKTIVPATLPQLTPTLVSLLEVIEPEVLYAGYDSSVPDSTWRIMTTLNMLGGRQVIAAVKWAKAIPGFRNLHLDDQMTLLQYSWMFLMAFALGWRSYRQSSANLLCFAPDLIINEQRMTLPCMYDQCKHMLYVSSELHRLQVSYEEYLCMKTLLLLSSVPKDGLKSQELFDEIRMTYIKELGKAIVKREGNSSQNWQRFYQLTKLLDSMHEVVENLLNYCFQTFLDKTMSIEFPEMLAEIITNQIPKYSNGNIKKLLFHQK

CC#C[C@]1(O)CC[C@H]2[C@@H]3CCC4=CC(=O)CCC4=C3[C@@H](c3ccc(N(C)C)cc3)C[C@@]21C [mifepristone, 17-beta-hydroxy-11-beta-(4-dimethyl-aminophenyl)-17-alpha-(1-propynyl)-estra-4,9-dien-3-one]
MIFE-Ctrough at Response, Max [1, 6]: 4210.00 ng/mL
MIFE-Ctrough at Response, Mean [1, 6]: 1968.68 ng/mL
MIFE-Ctrough at Response, Median [1, 6]: 1770.00 ng/mL
MIFE-Ctrough at Response, Min [1, 6]: 448.00 ng/mL
MIFE-ΔCtrough from Prior Dose, Max [1, 6]: 2017.00 ng/mL
MIFE-ΔCtrough from Prior Dose, Mean [1, 6]: 221.50 ng/mL
MIFE-ΔCtrough from Prior Dose, Median [1, 6]: 250.00 ng/mL
MIFE-ΔCtrough from Prior Dose, Min [1, 6]: -860.00 ng/mL
MIFE-Ctrough, Mean ([1]; dose 300 (mg once a day by mouth)): 1774.28 ng/mL
MIFE-Ctrough, Max ([1]; dose 300): 4130.00 ng/mL
MIFE-Ctrough, Median ([1]; dose 300): 1455.00 ng/mL
MIFE-Ctrough, Min ([1]; dose 300): 820.00 ng/mL
MIFE-Ctrough, Mean ([1]; dose 600 (mg once a day by mouth)): 1951.66 ng/mL
MIFE-Ctrough, Max ([1]; dose 600): 3850.00 ng/mL
MIFE-Ctrough, Median ([1]; dose 600): 1630.00 ng/mL
MIFE-Ctrough, Min ([1]; dose 600): 890.00 ng/mL
MIFE-Ctrough, Mean ([1]; dose 900 (mg once a day by mouth)): 2107.70 ng/mL
MIFE-Ctrough, Max ([1]; dose 900): 4230.00 ng/mL
MIFE-Ctrough, Median ([1]; dose 900): 1820.00 ng/mL
MIFE-Ctrough, Min ([1]; dose 900): 992.00 ng/mL
MIFE-Ctrough, Mean ([1]; dose 1200 (mg once a day by mouth)): 2292.86 ng/mL
MIFE-Ctrough, Max ([1]; dose 1200): 5440.00 ng/mL
MIFE-Ctrough, Median ([1]; dose 1200): 2022.50 ng/mL
MIFE-Ctrough, Min ([1]; dose 1200): 1060.00 ng/mL
blood serum level to be maintained for a therapeutic response ([1]; patients suffering from Cushing's syndrome): at least 1631 ng/mL
Cumulative Optimal Response (%) ([2]; dose 300): 20%
Optimal Response (%) ([2]; dose 300): 20%
Cumulative Optimal Response (%) ([2]; dose 600): 40%
Optimal Response (%) ([2]; dose 600): 20%
Cumulative Optimal Response (%) ([2]; dose 900): 60%
Optimal Response (%) ([2]; dose 900): 20%
Cumulative Optimal Response (%) ([2]; dose 1200): 100%
Optimal Response (%) ([2]; dose 1200): 40%
blood serum level to be maintained ([3]; patients suffering from a mental disorder): about 1300 ng/mL
difference in blood serum levels from one patient to another ([3]; same dose, different patients): ≤ 800%
binding to the glucocorticoid receptor (GR) [4]: high affinity
LD50 dose [5]: about 1000 mg/kg
